The source made the active and inactive calls. The calls are words filed in the database; no cut-off is given here.
Legend:
[1] = Displacement of radioligand from muscarinic receptor by liquid scintillation spectrometry
[2] = biological target: T1, 5-hydroxytryptamine receptor 1A (Homo sapiens, UniProt P08908); assay: Displacement of radioligand from 5HT1A receptor by liquid scintillation spectrometry
T1 sequence (P08908 whole entry): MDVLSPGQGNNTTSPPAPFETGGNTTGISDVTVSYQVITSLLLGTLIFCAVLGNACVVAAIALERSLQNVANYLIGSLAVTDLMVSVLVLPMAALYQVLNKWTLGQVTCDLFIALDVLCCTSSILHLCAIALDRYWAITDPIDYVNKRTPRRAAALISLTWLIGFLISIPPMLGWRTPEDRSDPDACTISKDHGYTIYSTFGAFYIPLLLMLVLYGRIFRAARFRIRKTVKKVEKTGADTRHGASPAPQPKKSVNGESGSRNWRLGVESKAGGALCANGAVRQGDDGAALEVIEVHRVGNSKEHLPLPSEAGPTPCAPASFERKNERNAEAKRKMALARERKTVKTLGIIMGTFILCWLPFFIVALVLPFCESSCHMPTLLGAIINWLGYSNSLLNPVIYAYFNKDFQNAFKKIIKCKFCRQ

[3] = biological target: T2, 5-hydroxytryptamine receptor 3A (Homo sapiens, UniProt P46098); assay: Displacement of radioligand from 5HT3 receptor by liquid scintillation spectrometry
T2 sequence (P46098 whole entry): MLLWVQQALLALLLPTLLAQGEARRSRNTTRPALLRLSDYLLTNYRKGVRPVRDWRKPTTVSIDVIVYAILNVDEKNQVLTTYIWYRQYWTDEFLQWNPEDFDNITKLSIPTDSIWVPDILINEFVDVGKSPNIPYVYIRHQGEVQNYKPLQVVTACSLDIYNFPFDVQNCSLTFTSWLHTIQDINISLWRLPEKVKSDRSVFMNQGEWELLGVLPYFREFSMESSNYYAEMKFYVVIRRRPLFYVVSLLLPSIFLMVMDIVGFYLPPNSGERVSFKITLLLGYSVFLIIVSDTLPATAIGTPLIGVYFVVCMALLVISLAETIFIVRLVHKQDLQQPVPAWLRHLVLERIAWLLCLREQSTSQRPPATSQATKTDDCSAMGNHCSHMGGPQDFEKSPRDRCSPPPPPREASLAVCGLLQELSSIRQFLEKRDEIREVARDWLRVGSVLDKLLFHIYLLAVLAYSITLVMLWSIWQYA

[4] = biological target: T3, Adrenergic receptor alpha-2 (Rattus norvegicus, UniProt P22086+P19328+P22909); assay: Displacement of radioligand from rat alpha2 adrenergic receptor by liquid scintillation spectrometry
T3 sequence (P22086 whole entry): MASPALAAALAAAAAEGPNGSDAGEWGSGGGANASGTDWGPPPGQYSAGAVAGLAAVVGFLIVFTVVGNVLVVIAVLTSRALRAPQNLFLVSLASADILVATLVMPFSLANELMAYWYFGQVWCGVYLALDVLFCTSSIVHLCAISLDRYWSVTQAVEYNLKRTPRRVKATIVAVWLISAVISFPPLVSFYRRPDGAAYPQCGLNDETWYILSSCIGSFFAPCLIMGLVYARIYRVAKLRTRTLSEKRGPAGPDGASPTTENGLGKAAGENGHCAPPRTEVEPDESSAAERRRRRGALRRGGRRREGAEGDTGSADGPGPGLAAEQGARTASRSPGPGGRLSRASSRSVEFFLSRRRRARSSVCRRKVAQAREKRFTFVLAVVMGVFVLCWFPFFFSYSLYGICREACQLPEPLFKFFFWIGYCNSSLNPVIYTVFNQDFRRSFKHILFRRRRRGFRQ
T3 sequence (P19328 whole entry): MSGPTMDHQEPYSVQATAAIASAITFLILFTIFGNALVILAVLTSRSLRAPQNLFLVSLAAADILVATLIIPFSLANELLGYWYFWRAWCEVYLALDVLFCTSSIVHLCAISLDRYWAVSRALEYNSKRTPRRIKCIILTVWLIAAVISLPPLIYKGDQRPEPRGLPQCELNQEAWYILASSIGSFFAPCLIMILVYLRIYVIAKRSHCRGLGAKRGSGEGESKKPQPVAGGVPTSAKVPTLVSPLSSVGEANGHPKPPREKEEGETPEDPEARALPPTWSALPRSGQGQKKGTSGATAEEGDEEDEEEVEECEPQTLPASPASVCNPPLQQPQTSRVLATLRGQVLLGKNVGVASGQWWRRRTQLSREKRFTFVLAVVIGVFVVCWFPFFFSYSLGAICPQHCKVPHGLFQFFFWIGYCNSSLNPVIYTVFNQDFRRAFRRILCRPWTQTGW
T3 sequence (P22909 whole entry): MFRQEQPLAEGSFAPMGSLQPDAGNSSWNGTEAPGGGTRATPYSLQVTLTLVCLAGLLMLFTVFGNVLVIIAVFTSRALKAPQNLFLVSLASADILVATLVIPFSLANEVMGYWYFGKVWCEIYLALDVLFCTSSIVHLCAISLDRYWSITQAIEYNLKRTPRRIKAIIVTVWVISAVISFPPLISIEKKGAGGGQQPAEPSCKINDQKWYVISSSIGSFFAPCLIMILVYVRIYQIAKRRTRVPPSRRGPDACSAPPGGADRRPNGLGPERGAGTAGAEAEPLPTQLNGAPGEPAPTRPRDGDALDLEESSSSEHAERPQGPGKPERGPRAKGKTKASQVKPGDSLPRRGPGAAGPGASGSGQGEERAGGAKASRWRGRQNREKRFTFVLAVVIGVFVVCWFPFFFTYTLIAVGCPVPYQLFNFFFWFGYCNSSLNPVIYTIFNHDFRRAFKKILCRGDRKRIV

[5] = biological target: T4, Glucocorticoid receptor (Homo sapiens) (UniProt P04150); assay: Displacement of radioligand from glucocorticoid receptor by liquid scintillation spectrometry
T4 sequence (whole entry): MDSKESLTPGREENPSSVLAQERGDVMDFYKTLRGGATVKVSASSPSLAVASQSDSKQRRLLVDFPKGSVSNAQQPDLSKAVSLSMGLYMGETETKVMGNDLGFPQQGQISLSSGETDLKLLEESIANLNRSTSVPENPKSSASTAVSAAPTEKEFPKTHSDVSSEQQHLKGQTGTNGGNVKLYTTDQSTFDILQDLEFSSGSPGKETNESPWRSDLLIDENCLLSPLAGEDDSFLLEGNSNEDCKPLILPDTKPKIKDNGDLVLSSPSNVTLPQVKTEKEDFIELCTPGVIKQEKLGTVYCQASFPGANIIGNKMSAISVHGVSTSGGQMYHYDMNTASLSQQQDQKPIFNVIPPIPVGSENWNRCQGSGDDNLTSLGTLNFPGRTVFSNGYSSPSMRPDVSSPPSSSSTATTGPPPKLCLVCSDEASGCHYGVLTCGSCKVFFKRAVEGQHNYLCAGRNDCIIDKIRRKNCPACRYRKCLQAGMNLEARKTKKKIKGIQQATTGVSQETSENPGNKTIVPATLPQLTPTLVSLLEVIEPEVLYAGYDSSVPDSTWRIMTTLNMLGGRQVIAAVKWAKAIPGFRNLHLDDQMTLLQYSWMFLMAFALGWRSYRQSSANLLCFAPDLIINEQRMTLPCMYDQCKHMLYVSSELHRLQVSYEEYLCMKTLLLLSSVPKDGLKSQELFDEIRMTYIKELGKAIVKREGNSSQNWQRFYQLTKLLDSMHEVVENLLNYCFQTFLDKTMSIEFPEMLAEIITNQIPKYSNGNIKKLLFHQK

[6] = Displacement of radioligand from GABAB receptor by liquid scintillation spectrometry
[7] = Displacement of radioligand from potassium channel by liquid scintillation spectrometry
[8] = Displacement of radioligand from glycine receptor by liquid scintillation spectrometry
[9] = Displacement of radioligand from rat sodium channel batrachotoxin binding site by liquid scintillation spectrometry
[10] = Displacement of radioligand from calcium channel by liquid scintillation spectrometry
[11] = biological target: D(2) dopamine receptor (Homo sapiens) (UniProt P14416); assay: Displacement of radioligand from dopamine D2 receptor by liquid scintillation spectrometry
[12] = biological target: D(1A) dopamine receptor (Homo sapiens) (UniProt P21728); assay: Displacement of radioligand from dopamine D1 receptor by liquid scintillation spectrometry
[13] = Displacement of radioligand from GABAA receptor by liquid scintillation spectrometry
[14] = Displacement of radioligand from AMPA receptor by liquid scintillation spectrometry
[15] = Displacement of radioligand from NMDA receptor by liquid scintillation spectrometry
[16] = biological target: T5, Adrenergic receptor alpha-1 (Rattus norvegicus, UniProt P15823+P23944+P43140); assay: Displacement of radioligand from rat alpha1 adrenergic receptor by liquid scintillation spectrometry
T5 sequence (P15823 whole entry): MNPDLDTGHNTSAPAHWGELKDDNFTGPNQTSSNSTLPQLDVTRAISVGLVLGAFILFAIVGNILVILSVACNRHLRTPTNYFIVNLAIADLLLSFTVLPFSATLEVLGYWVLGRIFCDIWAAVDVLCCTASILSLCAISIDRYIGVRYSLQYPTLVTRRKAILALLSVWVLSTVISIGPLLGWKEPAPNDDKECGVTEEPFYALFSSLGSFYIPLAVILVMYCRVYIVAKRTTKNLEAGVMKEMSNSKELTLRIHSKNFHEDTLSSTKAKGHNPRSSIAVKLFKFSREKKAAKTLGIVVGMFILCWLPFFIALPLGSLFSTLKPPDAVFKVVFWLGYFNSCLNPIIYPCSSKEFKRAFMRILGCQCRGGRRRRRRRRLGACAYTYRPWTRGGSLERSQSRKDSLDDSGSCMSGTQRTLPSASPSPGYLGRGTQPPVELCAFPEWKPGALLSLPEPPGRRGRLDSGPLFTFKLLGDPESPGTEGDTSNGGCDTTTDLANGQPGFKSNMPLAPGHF
T5 sequence (P23944 whole entry): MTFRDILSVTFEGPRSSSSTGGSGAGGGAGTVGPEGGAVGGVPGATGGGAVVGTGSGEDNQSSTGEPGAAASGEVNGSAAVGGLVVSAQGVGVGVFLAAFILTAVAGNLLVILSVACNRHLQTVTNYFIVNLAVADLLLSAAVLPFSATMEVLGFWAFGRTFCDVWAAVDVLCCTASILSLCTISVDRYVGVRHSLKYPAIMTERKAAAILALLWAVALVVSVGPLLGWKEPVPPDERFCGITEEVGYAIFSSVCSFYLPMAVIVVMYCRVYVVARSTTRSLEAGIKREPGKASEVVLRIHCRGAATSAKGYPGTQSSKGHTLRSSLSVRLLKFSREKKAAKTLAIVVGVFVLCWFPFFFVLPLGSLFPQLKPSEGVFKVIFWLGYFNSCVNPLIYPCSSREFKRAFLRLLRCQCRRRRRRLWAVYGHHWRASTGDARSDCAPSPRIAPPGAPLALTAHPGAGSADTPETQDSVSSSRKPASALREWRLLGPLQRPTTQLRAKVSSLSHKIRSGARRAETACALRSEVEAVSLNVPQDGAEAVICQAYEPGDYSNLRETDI
T5 sequence (P43140 whole entry): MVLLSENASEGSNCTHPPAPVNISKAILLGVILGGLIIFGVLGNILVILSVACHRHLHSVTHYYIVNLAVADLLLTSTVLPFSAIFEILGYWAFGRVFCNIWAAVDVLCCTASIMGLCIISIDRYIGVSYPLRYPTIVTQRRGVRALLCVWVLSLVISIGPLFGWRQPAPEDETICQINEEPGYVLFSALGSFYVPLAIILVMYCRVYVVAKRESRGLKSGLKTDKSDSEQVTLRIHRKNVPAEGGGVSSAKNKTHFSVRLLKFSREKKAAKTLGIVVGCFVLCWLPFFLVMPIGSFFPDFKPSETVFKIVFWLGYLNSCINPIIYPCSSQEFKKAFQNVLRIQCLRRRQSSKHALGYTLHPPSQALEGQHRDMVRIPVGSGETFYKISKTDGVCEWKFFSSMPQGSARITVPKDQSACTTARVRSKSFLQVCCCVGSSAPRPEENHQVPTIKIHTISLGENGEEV

[17] = biological target: 5-hydroxytryptamine receptor 2A (Homo sapiens, UniProt P28223); assay: Displacement of radioligand from 5HT2 receptor by liquid scintillation spectrometry
5-hydroxytryptamine receptor 2A, sequence (P28223 whole entry): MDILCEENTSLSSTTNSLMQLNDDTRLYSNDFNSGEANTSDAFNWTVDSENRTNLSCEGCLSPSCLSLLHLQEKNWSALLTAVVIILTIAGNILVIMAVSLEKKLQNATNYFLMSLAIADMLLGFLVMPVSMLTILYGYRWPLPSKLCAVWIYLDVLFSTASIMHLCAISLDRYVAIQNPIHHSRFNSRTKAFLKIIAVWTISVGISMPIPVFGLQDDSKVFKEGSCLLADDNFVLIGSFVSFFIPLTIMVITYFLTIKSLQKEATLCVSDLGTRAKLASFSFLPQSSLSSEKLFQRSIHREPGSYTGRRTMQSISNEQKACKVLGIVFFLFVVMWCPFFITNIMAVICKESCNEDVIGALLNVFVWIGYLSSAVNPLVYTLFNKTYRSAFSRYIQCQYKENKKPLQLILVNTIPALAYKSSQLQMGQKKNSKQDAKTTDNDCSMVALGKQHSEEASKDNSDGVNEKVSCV

D(1A) dopamine receptor (Homo sapiens), sequence (P21728 whole entry): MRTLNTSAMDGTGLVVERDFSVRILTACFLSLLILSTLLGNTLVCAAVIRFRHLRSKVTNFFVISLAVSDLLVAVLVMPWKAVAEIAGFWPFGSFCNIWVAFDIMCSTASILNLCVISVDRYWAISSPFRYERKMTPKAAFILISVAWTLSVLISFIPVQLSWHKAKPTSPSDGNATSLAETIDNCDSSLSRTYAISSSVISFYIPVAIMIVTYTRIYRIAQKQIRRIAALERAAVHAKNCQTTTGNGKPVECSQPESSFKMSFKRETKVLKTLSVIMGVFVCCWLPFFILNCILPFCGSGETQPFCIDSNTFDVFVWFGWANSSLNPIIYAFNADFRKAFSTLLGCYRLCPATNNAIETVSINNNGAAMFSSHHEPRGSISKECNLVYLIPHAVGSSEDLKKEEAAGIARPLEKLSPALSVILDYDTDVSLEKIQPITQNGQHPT
D(2) dopamine receptor (Homo sapiens), sequence (P14416 whole entry): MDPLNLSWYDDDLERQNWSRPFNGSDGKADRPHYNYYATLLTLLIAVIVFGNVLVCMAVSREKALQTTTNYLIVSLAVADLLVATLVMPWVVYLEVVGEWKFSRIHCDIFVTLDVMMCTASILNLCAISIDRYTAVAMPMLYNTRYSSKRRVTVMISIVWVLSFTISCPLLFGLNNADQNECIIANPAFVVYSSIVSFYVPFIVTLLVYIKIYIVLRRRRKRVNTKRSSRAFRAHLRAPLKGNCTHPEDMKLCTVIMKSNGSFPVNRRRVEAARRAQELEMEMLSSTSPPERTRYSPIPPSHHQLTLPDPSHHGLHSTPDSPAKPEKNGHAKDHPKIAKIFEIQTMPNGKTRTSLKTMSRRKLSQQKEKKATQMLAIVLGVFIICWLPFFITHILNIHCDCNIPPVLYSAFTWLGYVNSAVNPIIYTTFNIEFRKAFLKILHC

Structure (SMILES): CC[C@]12CCCN3CC[C@@]4([C@H]5CCCC[C@H]5N[C@H]4[C@@H](C(=O)OC)C1)[C@@H]32.Cl.Cl
- Activity [1]: inactive
- IC50 [2]: > 10 µM
- IC50 [3]: > 100 µM
- Ki [4]: > 100 µM
- Activity [5]: inactive
- Activity [6]: inactive
- Activity [7]: inactive
- Activity [8]: inactive
- Ki [9]: 3.7 µM
- Activity [10]: inactive
- Activity [11]: inactive
- Activity [12]: inactive
- Activity [13]: inactive
- Activity [14]: inactive
- Activity [15]: inactive
- Ki [16]: > 100 µM
- IC50 [17]: > 10 µM

Structure (SMILES): CC[C@]12CCCN3CC[C@@]4([C@H]5CCCC[C@H]5N[C@H]4[C@@H](C(=O)[O-])C1)[C@@H]32.[Na+]
- Activity [1]: inactive
- IC50 [2]: > 10 µM
- IC50 [3]: > 100 µM
- Ki [4]: > 100 µM
- Activity [5]: inactive
- Activity [6]: inactive
- Activity [7]: inactive
- Activity [8]: inactive
- Ki [9]: > 10 µM
- Activity [10]: inactive
- Activity [11]: inactive
- Activity [12]: inactive
- Activity [13]: inactive
- Activity [14]: inactive
- Activity [15]: inactive
- Ki [16]: > 100 µM
- IC50 [17]: > 10 µM

Structure (SMILES): COc1ccc(C(=O)O[C@H]2CC[C@@]3(C)[C@@H]4CC[C@H]5[C@]6(O)C[C@H](O)[C@@]7(O)[C@@H](CN8C[C@@H](C)CC[C@H]8[C@@]7(C)O)[C@]6(O)C[C@@]53O[C@]24O)cc1OC [VERATRIDINE]
- Ki [9]: 2.1 µM
